Measured values reported in patent US20130190403A1, “ADMINISTRATION OF INTRAVENOUS IBUPROFEN TO TRAUMA PATIENTS” (Cumberland Pharmaceuticals Inc., priority 2012, published 2013).

System: traumatic rib fracture patients
Experiment: Retrospective review of traumatic rib fracture patients: intravenous ibuprofen plus narcotics versus narcotics alone
Assay type: in vivo, human

## CC(C)Cc1ccc(C(C)C(=O)O)cc1 (stereo not drawn) [ibuprofen, 2-(4-isobutylphenyl) propionic acid]
Day 1 or Day 2
  daily narcotic requirement, Treatment Group versus Control Group: did not differ
Treatment group
  complications associated with ibuprofen therapy: no significant complications
Each of Days 3 through 7 (p<0.05)
  daily narcotic requirement, Treatment Group versus Control Group: significantly decreased
